In patent publication US12577206B2 (BRISTOL-MYERS SQUIBB COMPANY, priority 2020, dated 2026) one finds EC50 data, which are given here for 19 compounds.

In one assay the target is T1, human FPR1 (Homo sapiens, UniProt P21462).
T1 sequence (P21462 1-350): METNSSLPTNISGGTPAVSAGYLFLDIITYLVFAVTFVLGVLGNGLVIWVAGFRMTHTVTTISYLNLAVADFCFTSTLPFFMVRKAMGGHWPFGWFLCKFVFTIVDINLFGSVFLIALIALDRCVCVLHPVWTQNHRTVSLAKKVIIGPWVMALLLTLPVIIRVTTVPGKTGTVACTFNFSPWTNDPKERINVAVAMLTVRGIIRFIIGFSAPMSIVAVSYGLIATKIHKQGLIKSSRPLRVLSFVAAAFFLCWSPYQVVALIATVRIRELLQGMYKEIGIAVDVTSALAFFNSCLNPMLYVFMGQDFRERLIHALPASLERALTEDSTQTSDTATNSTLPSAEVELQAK
Nature of the assay: FPR1 cyclic adenosine monophosphate (cAMP) assay. Conditions: CHO cells overexpressing human FPR1; forskolin 10 μM; inhibition of cAMP production; HTRF; read-out: hFPR1 cAMP2 EC50. The class given is cell-based. The method, boiled down: (§1)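 CHO/hFPR1 4,000 cells/well, forskolin 10 μM final; CHO/hFPR2 2,000 cells/well, forskolin 5 μM final. IBMX 200 μM, DMSO 1%, DPBS + Ca/Mg + 0.1% BSA, 30 min rt. HTRF cAMP; 4-PL fit.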
Background: Changes in cAMP serve as a functional read-out for many G protein-coupled receptors.

The next assay deals with T2, human FPR2 (Homo sapiens, UniProt P25090).
T2 sequence (P25090 1-351): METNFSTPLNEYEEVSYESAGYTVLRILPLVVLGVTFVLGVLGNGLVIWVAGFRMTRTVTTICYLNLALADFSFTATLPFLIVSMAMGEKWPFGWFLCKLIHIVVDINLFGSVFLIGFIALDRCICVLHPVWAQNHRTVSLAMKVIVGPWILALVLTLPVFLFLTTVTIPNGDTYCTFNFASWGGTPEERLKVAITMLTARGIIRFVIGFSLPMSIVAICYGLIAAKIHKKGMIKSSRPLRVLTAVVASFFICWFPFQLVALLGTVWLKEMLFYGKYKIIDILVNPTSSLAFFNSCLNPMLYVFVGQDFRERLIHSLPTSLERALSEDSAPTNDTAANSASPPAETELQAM
Nature of the assay: FPR2 cyclic adenosine monophosphate (cAMP) assay. To be noted: CHO cells overexpressing human FPR2; forskolin 5 μM; inhibition of cAMP production; HTRF; read-out: hFPR2 cAMP2 EC50. The class given is cell-based. An outline of the steps:
as §1

As for `COc1cc(F)c(-c2c(NC(=O)c3ccc(OC(F)F)cc3)c(=O)n(-c3nc(N4CCN(CC(F)F)CC4)ccc3Cl)n2C)c(F)c1` [Example 240, N-(2-{3-chloro-6-[4-(2,2-difluoroethyl)piperazin-1-yl]pyridin-2-yl}-5-(2,6-difluoro-4-methoxyphenyl)-1-methyl-3-oxo-2,3-dihydro-1H-pyrazol-4-yl)-4-(difluoromethoxy)benzamide], the EC50 on human FPR1 amounted to 1300 nM; at human FPR2, 2 nM.

`COc1cc(F)c(-c2c(NC(=O)c3ccc(OC(F)F)cc3)c(=O)n(-c3nc(N4CC(F)(F)C4)ccc3Cl)n2C)c(F)c1` [Example 145, N-{2-[3-chloro-6-(3,3-difluoroazatidin-1-yl)pyridin-4-methoxyphenyl)-1-methyl-3-oxo-2,3-dihydro-1H-pyrazol-4-yl}-4-(difluoromethoxy)benzamide]: the figures for the concentration for a half-maximal effect (EC50) at human FPR1 and at human FPR2 were 2900 nM and 3 nM, respectively.

Consider `Cn1c(-c2ccc(C3CC3)cc2)c(NC(=O)c2ccc(OC(F)F)cc2)c(=O)n1-c1ncccc1C(F)(F)F` [Example 277, N-[5-(4-cyclopropylphenyl)-1-methyl-3-oxo-2-[3-(trifluoromethyl)pyridin-2-yl]-2,3-dihydro-1H-pyrazol-4-yl]-4-(difluoromethoxy)benzamide], for which the EC50 on human FPR1 turned out to be 730 nM; on human FPR2, 17 nM.

As to `COc1cc(F)c(-c2c(NC(=O)c3ccc(Cl)cc3)c(=O)n(-c3ccccc3F)n2C)c(F)c1` [Example 30, 4-chloro-4-N-[5-(2,6-difluoro-4-methoxyphenyl)-2-(2-fluorophenyl)-1-methyl-3-oxo-2,3-dihydro-1H-pyrazol-4-yl]benzamide], the results for the EC50 on human FPR1 and at human FPR2 were over 10000 nM and 18 nM, respectively.

`COc1cc(OCC(C)(F)F)nc(-n2c(=O)c(NC(=O)c3ccc(OC(F)F)cc3)c(-c3c(F)cc(OC)cc3F)n2C)c1` [Example 387, N-(5-(2,6-Difluoro-4-methoxyphenyl)-2-(6-(2,2-difluoropropoxy)-4-methoxypyridin-2-yl)-1-methyl-3-oxo-2,3-dihydro-1H-pyrazol-4-yl)-4-(difluoromethoxy)benzamide]: the EC50 at human FPR1 was over 10000 nM; at human FPR2 it was 8 nM.

On to `COc1cc(F)c(-c2c(NC(=O)c3ccc(OC(F)F)cc3)c(=O)n(-c3nc(N[C@@H](C)CO)ccc3C(F)(F)F)n2C)c(F)c1` [Example 237, N-[5-(2,6-difluoro-4-methoxyphenyl)-2-(6-{[(2S)-1-hydroxypropan-2-yl]amino}-3-(trifluoromethyl)pyridin-2-yl)-1-methyl-3-oxo-2,3-dihydro-1H-pyrazol-4-yl]-4-(difluoromethoxy)benzamide], for which the EC50 on human FPR1 was over 5000 nM; on human FPR2, 1 nM.

With `COc1cc(F)c(-c2c(NC(=O)c3ccc(OC(F)F)cc3)c(=O)n(-c3cc(C)cc(OCCO)n3)n2C)c(F)c1` [Example 331, N-(5-(2,6-Difluoro-4-methoxyphenyl)-2-(6-(2-hydroxyethoxy)-4-methylpyridin-2-yl)-1-methyl-3-oxo-2,3-dihydro-1H-pyrazol-4-yl)-4-(difluoromethoxy)benzamide], the EC50 at human FPR1 is over 10000 nM; on human FPR2, 3 nM.

For the compound `COc1cc(F)c(-c2c(NC(=O)c3ccc(OC(F)(F)F)cc3)c(=O)n(-c3cc(C)ccn3)n2C)c(F)c1` [Example 151, N-[5-(2,6-difluoro-4-methoxyphenyl)-1-methyl-2-(4-methylpyridin-2-yl)-3-oxo-2,3-dihydro-1H-pyrazol-4-yl]-4-(trifluoromethoxy)benzamide], the EC50 on human FPR1 was 2700 nM; at human FPR2, 13 nM.

As to `COc1cc(F)c(-c2c(NC(=O)c3ccc(OC(F)F)cc3)c(=O)n(-c3nc(NCC(N)=O)ccc3C(F)(F)F)n2C)c(F)c1` [Example 226, N-(2-{6-[(carbamoylmethyl)amino]-3-(trifluoromethyl)pyridin-2-yl}-5-(2,6-difluoro-4-methoxyphenyl)-1-methyl-3-oxo-2,3-dihydro-1H-pyrazol-4-yl)-4-(difluoromethoxy)benzamide], the values for the EC50 at human FPR1 and on human FPR2 were over 10000 nM and 13 nM, respectively.

In the case of `COc1cc(F)c(-c2c(NC(=O)c3ccc(OC(F)(F)F)cc3)c(=O)n(-c3cccc(C4CC4)n3)n2C)c(F)c1` [Example 167, N-[2-(6-cyclopropylpyridin-2-yl)-5-(2,6-difluoro-4-methoxyphenyl)-1-methyl-3-oxo-2,3-dihydro-1H-pyrazol-4-yl]-4-(trifluoromethoxy)benzamide], the values for the EC50 on human FPR1 and at human FPR2 were 460 nM and 4 nM, respectively.

Take `COc1cc(F)c(-c2c(NC(=O)c3ccc(OC(F)F)cc3)c(=O)n(-c3nc(C(F)(F)F)ccc3OCC3CCOC3)n2C)c(F)c1` (centres unmarked) [Example 369, N-(5-(2,6-Difluoro-4-methoxyphenyl)-1-methyl-3-oxo-2-(3-((tetrahydrofuran-3-yl)methoxy)-6-(trifluoromethyl)pyridin-2-yl)-2,3-dihydro-1H-pyrazol-4-yl)-4-(difluoromethoxy)benzamide]: the EC50 on human FPR1 is over 10000 nM; on human FPR2, 5 nM.

With `COc1ccc(-c2c(NC(=O)c3ccc(OC(F)F)cc3)c(=O)n(-c3nc(Cl)ccc3C(F)(F)F)n2C)c(F)c1` [Example 295, N-{2-[6-chloro-3-(trifluoromethyl)pyridin-2-yl]-5-(2-fluoro-4-methoxyphenyl)-1-methyl-3-oxo-2,3-dihydro-1H-pyrazol-4-yl}-4-(difluoromethoxy)benzamide], the EC50 was determined as 1500 nM at human FPR1 and 1 nM at human FPR2.

Consider `COc1cc(F)c(-c2c(NC(=O)c3ccc(OC(F)F)cc3)c(=O)n(-c3cccc(OC)n3)n2C)c(F)c1` [Example 75, N-[5-(2,6-difluoro-4-methoxyphenyl)-2-(6-methoxypyridin-2-yl)-1-methyl-3-oxo-2,3-dihydro-1H-pyrazol-4-yl]-4-(difluoromethoxy)benzamide], for which the EC50 amounted to 2300 nM at human FPR1 and 7 nM on human FPR2.

Take `COc1cc(F)c(-c2c(NC(=O)c3ccc(OC(F)F)cc3)c(=O)n(-c3cccc(Cl)c3F)n2C)c(F)c1` [Example 187, N-[2-(3-chloro-2-fluorophenyl)-5-(2,6-difluoro-4-methoxyphenyl)-1-methyl-3-oxo-2,3-dihydro-1H-pyrazol-4-yl]-4-(difluoromethoxy)benzamide]: the figures for the EC50 at human FPR1 and at human FPR2 were 2200 nM and 4 nM, respectively.

`COc1cc(F)c(-c2c(NC(=O)c3ccc(OC(F)F)cc3)c(=O)n(-c3cccc(NC(=O)C(C)(C)C)n3)n2C)c(F)c1` [Example 84, N-[5-(2,6-difluoro-4-methoxyphenyl)-2-[6-(2,2-dimethylpropanamido)pyridin-2-yl]-1-methyl-3-oxo-2,3-dihydro-1H-pyrazol-4-yl]-4-(difluoromethoxy)benzamide]: the values for the 50% effective concentration (EC50) on human FPR1 and at human FPR2 were 82 nM and 5 nM, respectively.

As for `COc1cc(F)c(-c2c(NC(=O)c3ccc(OC(F)F)cc3)c(=O)n(-c3cccc(OC(F)F)c3)n2C)c(F)c1` [Example 177, N-[5-(2,6-difluoro-4-methoxyphenyl)-2-[3-(difluoromethoxy)phenyl]-1-methyl-3-oxo-2,3-dihydro-1H-pyrazol-4-yl]-4-(difluoromethoxy)benzamide], the EC50 on human FPR1 and at human FPR2 was 3 nM each time.

As for `COc1cc(OC2CCOC2)nc(-n2c(=O)c(NC(=O)c3ccc(OC(F)F)cc3)c(-c3c(F)cc(OC)cc3F)n2C)c1` (centres unmarked) [Example 356, N-(5-(2,6-Difluoro-4-methoxyphenyl)-2-(4-methoxy-6-((tetrahydrofuran-3-yl)oxy)pyridin-2-yl)-1-methyl-3-oxo-2,3-dihydro-1H-pyrazol-4-yl)-4-(difluoromethoxy)benzamide], the EC50 at human FPR1 was over 10000 nM; at human FPR2 it was 5 nM.

For the compound `CCc1cccc(-n2c(=O)c(NC(=O)c3ccc(OC(F)F)cc3)c(-c3c(F)cc(OC)cc3F)n2C)n1` [Example 163, N-[5-(2,6-difluoro-4-methoxyphenyl)-2-(6-ethylpyridin-2-yl)-1-methyl-3-oxo-2,3-dihydro-1H-pyrazol-4-yl]-4-(difluoromethoxy)benzamide], the EC50 is over 10000 nM on human FPR1 and 4 nM at human FPR2.

As to `COc1cc(C2CCCN(C)C2)nc(-n2c(=O)c(NC(=O)c3ccc(OC(F)F)cc3)c(-c3c(F)cc(OC)cc3F)n2C)c1` (centres unmarked) [Example 342, N-(5-(2,6-Difluoro-4-methoxyphenyl)-2-(4-methoxy-6-(1-methylpiperidin-3-yl)pyridin-2-yl)-1-methyl-3-oxo-2,3-dihydro-1H-pyrazol-4-yl)-4-(difluoromethoxy)benzamide], the concentration for a half-maximal effect (EC50) is over 10000 nM on human FPR1 and 2 nM on human FPR2.

A word on the EC50: it is the concentration needed to bring the measured effect to its halfway point.
